Results on eleven compounds are retold here after US12473277B2, “Solid forms of a modulator of hemoglobin” (GLOBAL BLOOD THERAPEUTICS, INC., priority 2021, dated 2025).

Structures can show the parent of a compound that is named as a salt.

Data set [1] can be described thus: Dynamic vapor sorption/desorption (DVS) isotherm. In kind it is physicochemical. The following applies: for hygroscopicity indicated by DVS isotherm: 5% to 95% RH, 10% RH increments, nitrogen purge; for weight gain and loss through the sorption/desorption cycle / weight gain through the sorption cycle / weight loss upon desorption: DVS; for weight gain and loss through the sorption/desorption cycle / weight gain through the sorption cycle: 5 to 95% RH; for material recovered from the DVS experiment, by XRPD: after DVS sorption/desorption cycle; for weight loss upon desorption: 95 to 5% RH. Here is the method: Automated vapor sorption (VS) data were collected on a Surface Measurement System DVS Intrinsic instrument or a VTI SGA-100 instrument. Samples were not dried prior to analysis. Sorption and desorption data were collected over a range from 5% to 95% relative humidity (RH) at 10% RH increments under a nitrogen purge. The equilibrium criterion used for analysis was less than 0.0100% weight change in 5 minutes with a maximum equilibration time of 3 hours. Data were not corrected for the initial moisture content of the samples.

Data set [2] in a line: Binary interconversion slurry experiments between Compound I Form I and Compound I Material II. In kind it is physicochemical. The following applies: room temperature slurries. From the text:
Binary interconversion slurry experiments between Compound I Form I and Compound I Material II in different solvent systems at room temperature are summarized in Table 2. Saturated solutions were generated and then added to mixtures composed of approximately equivalent quantities of the two polymorphs. The samples were slurried for several days and the solids harvested and analyzed by XRPD.

The nature of data set [3]: Physical stability of solid forms under humidity, temperature or vacuum stress (XRPD/observation). In kind it is physicochemical. Here is the method: XRPD figures were generated using SSCI Pattern Match 3.0.4, unvalidated software. XRPD patterns were collected with a PANalytical X'Pert PRO MPD or a PANalytical Empyrean diffractometer using an incident beam of Cu radiation produced using an Optix long, fine-focus source. An elliptically graded multilayer mirror was used to focus Cu Kα X-rays through the specimen and onto the detector. Prior to the analysis, a silicon specimen (NIST SRM 640e or NIST SRM 6400 was analyzed to verify the observed position of the Si 111 peak is consistent with the NIST-certified position. A specimen of the sample was sandwiched between 3-μm-thick films and analyzed in transmission geometry. A beam-stop, short antiscatter extension, and antiscatter knife edge were used to minimize the background generated by air. Soller slits for the incident and diffracted beams were used to minimize broadening and asymmetry from axial divergence. Diffraction patterns were collected using a scanning position-sensitive detector (X'Celerator) located 240 mm from the specimen and Data Collector software v. 2.2b or v. 5.5.

The next data set is described as follows: physchem. The following applies: water.

On to `O=Cc1c(O)cccc1OC[C@@H]1COCCN1C(=O)c1cccnc1CCO` [Compound I Form I, (S)-2-hydroxy-6-((4-(2-(2-hydroxyethyl)nicotinoyl)morpholin-3-yl)methoxy)benzaldehyde], for which, in data set [1], the “hygroscopicity indicated by DVS isotherm” value is on record as “low hygroscopicity”; the “weight gain and loss through the sorption/desorption cycle” value is reported as 0.7%; the “material recovered from the DVS experiment, by XRPD” value (“material recovered” for short) is reported as “identified as Compound I Form I”. Further, in data set [2], the “relative thermodynamic stability from interconversion studies” value is “most thermodynamically stable form relative to Material II”.
For `O=Cc1c(O)cccc1OC[C@@H]1COCCN1C(=O)c1cccnc1CCO` [Compound I HCl Form A], in data set [1], the “hygroscopicity indicated by DVS isotherm” value is reported as “significant hygroscopicity”; the “weight gain through the sorption cycle” value amounted to 3%; the “weight loss upon desorption” value turned out to be 3.3%; the “material recovered” value is given as “remained Compound I HCl Form A”. In addition, in data set [3] (40° C./75% RH for 27 days), the “physical stability, XRPD pattern after stress” value is reported as “no changes were observed in the XRPD pattern”.
With `O=Cc1c(O)cccc1OC[C@@H]1COCCN1C(=O)c1cccnc1CCO` [Compound I Material II, (S)-2-hydroxy-6-((4-(2-(2-hydroxyethyl)nicotinoyl)morpholin-3-yl)methoxy)benzaldehyde], in data set [1], the “hygroscopicity indicated by DVS isotherm” value was “significant hygroscopicity above 85% RH”; the “weight gain and loss through the sorption/desorption cycle” value is given as “approximately 3.4%”; the “material recovered” value is on record as “identified as Compound I Material II”.
Take “(S)-2-hydroxy-6-((4-(2-(2-hydroxyethyl)nicotinoyl)morpholin-3-yl)methoxy)benzaldehyde edisylate [Compound I Edisylate Material B]”: the “physical stability under vacuum (XRPD)” value in data set [3] (44° C. under vacuum) is “additional unidentified peaks”.
The same measure, in the same setting: to `CCS(=O)(=O)O.O=Cc1c(O)cccc1OC[C@@H]1COCCN1C(=O)c1cccnc1CCO` [Compound I Esylate Form A, (S)-2-hydroxy-6-((4-(2-(2-hydroxyethyl)nicotinoyl)morpholin-3-yl)methoxy)benzaldehyde esylate] belongs “not physically stable”.
As to `CCS(=O)(=O)O.O=Cc1c(O)cccc1OC[C@@H]1COCCN1C(=O)c1cccnc1CCO` [Compound I Esylate Form B, (S)-2-hydroxy-6-((4-(2-(2-hydroxyethyl)nicotinoyl)morpholin-3-yl)methoxy)benzaldehyde esylate], in data set [3] (90% relative humidity, ambient temperature), the “physical stability under high humidity” value was “deliquesced”.
Turning to `O=Cc1c(O)cccc1OC[C@@H]1COCCN1C(=O)c1cccnc1CCO.O=S(=O)(O)c1cccc2c(S(=O)(=O)O)cccc12` [Compound I Napadisylate Form A, (S)-2-hydroxy-6-((4-(2-(2-hydroxyethyl)nicotinoyl)morpholin-3-yl)methoxy)benzaldehyde napadisylate], in data set [3] (43° C. under vacuum, within 4 days), the “physical stability under vacuum (XRPD)” value is given as “not physically stable”.
“(S)-2-hydroxy-6-((4-(2-(2-hydroxyethyl)nicotinoyl)morpholin-3-yl)methoxy)benzaldehyde edisylate [Compound I Edisylate Form A]”: the “physical stability upon exposure to ambient conditions” value in data set [3] (ambient conditions, relative humidity approximately 57%) is “very hygroscopic and not stable under ambient conditions”. For the same compound, the “physical stability on drying in vacuum oven (XRPD)” value in data set [3] (damp sample, 43° C. vacuum oven) is reported as “physical instability”.
On to `O=Cc1c(O)cccc1OC[C@@H]1COCCN1C(=O)c1cccnc1CCO` [amorphous Compound I, (S)-2-hydroxy-6-((4-(2-(2-hydroxyethyl)nicotinoyl)morpholin-3-yl)methoxy)benzaldehyde], for which, in data set [1], the “hygroscopicity indicated by DVS isotherm” value is on record as “significant hygroscopicity”; the “weight gain through the sorption cycle” value is listed as “approximately 10%”; the “weight loss upon desorption” value came out at 7%; the “material recovered” value is “remained amorphous”.
As a reminder, the solubility is how much of the substance goes into solution per volume. In the case of `O=C(O)C(=O)O.O=Cc1c(O)cccc1OC[C@@H]1COCCN1C(=O)c1cccnc1CCO` [Compound I Oxalate Form B, (S)-2-hydroxy-6-((4-(2-(2-hydroxyethyl)nicotinoyl)morpholin-3-yl)methoxy)benzaldehyde oxalate], in data set [3] (90% RH, ambient temperature, 11 days), the “physical stability under high humidity (XRPD)” value is reported as “still predominately Compound I Oxalate Form B”. In addition, the solubility in the data set “physchem” was over 134 mg/mL.
In the case of `O=Cc1c(O)cccc1OC[C@@H]1COCCN1C(=O)c1cccnc1CCO.O=S(=O)(O)O` [Compound I Sulfate Form A, (S)-2-hydroxy-6-((4-(2-(2-hydroxyethyl)nicotinoyl)morpholin-3-yl)methoxy)benzaldehyde sulfate], the “physical stability under vacuum (XRPD)” value in data set [3] (43° C. under vacuum for 2 days) is reported as “physically stable”. For the same compound, the “physical stability under high humidity” value in data set [3] (90% RH, ambient temperature, within 1 day) is “deliquesces”. In the data set “physchem”, this compound gave a solubility of over 87 mg/mL.
